How the values were obtained:
curli = curli (Escherichia coli, UniProt P28307); experiment: Inhibition of curli assembly (FIG. 4); type: biochemical; settings: in the presence of compound
From the text: DAPH-12 (top) blocks tyrosine stacking, while Amphotericin B (bottom) binds to the edge strands and prevents amyloid assembly.

CsgA = CsgA (Escherichia coli, UniProt P28307); settings: peptides immobilized on glass slide; recombinant CsgA ~2 μm, about 10% labeled with ALEXA-647; stringent wash
Sequence of CsgA (P28307 21-151): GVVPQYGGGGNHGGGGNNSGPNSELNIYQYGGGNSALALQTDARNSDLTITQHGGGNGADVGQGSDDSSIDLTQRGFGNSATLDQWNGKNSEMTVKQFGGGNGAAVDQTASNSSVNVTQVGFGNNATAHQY
Description: Peptide array synthesis, hybridization and quantification. […] Each peptide spot (250 μM in diameter) is printed with 3 drops of 0.5 nL of peptide solution at a concentration of approximately 2.5 μM using non-contact printing (JPT Peptide Technologies GmbH). The unreacted peptides are removed from the hydrogel slides, dried and then the slides are blocked with 3% BSA in PBST for 1 hr. CsgA proteins are denatured in 6 M GuHCl at 100° C. for approximately 20 minutes, diluted 125 times in PBST containing 3% BSA to a final concentration of 1-5 μM and a label ratio of 5-75%. A single peptide array is incubated with approximately 2-3 mL of diluted CsgA using an ATLAS™ hybridization chamber (BD Biociences) without mixing for a given period of time. The peptide arrays are then washed 5 times with 50 mL of 2% SDS for 30 minutes, 5 times with 50 mL of water, 3 times with 50 mL of methanol and then spun dry. […] The arrays are imaged using a GENEPIX® 4000A scanner and the median values for the peptide spots of two to three replicates are quantified using GENEPIX® Pro 6.0 software (Molecular Devices).
Denatured peptides were arrayed on reactive glass slides and their interaction with soluble, fluorescently labeled CsgA was studied.
A peptide library of CsgB sequences was generated and immobilized on a glass slide essentially as described above. […]

Sequence of curli (P28307 21-151): as above

Row | Compound | inhibition of curli assembly (curli) | nucleation of assembly of soluble, fluorescently labeled CsgA by arrayed peptides (CsgA)
1 | C[C@@H]1[C@H](O)[C@@H](C)/C=C/C=C/C=C/C=C/C=C/C=C/C=C/[C@H](O[C@@H]2O[C@H](C)[C@@H](O)[C@H](N)[C@@H]2O)C[C@@H]2O[C@](O)(C[C@@H](O)C[C@@H](O)[C@H](O)CC[C@@H](O)C[C@@H](O)CC(=O)O[C@H]1C)C[C@H](O)[C@H]2C(=O)O [Amphotericin B] | inhibition of curli assembly | –
2 | COc1ccc(Nc2cc3c(cc2Nc2ccc(OC)cc2)C(=O)NC3=O)cc1 [DAPH-12] | inhibition of curli assembly | –
3 | GTQKTAIVVQRQSQMAIRVT [SEQ ID NO: 2] | – | nucleate assembly of CsgA
4 | LRQGGSKLLAVVAQEGSSNRAK [SEQ ID NO: 1] | – | nucleate assembly of CsgA

From patent US20120190566A1, “COMPOSITIONS AND METHODS FOR INHIBITING BIOFILMS” (priority 2009, published 2012)
